Reference: article PMC8001506 (Marine Drugs, 2021)
Entries after “also recorded” stand apart in the source; their conditions may differ. Where a SMILES comes first, the peptide text is derived from it. Bridges are numbered along the chain shown (N, C = ends).

What was measured:
rat α4β2 nAChR = rat α4β2 nAChR (Rattus norvegicus, UniProt P09483+P12390); experiment: cell-based; assay type: cell-based
[1] = tested on: common mammalian nAChR combinations; assay type: cell-based
rat α7 nAChR = rat α7 nAChR (Rattus norvegicus, UniProt Q05941); experiment: cell-based; assay type: cell-based
Sequence of rat α7 nAChR (Q05941 23-502 limits assumed): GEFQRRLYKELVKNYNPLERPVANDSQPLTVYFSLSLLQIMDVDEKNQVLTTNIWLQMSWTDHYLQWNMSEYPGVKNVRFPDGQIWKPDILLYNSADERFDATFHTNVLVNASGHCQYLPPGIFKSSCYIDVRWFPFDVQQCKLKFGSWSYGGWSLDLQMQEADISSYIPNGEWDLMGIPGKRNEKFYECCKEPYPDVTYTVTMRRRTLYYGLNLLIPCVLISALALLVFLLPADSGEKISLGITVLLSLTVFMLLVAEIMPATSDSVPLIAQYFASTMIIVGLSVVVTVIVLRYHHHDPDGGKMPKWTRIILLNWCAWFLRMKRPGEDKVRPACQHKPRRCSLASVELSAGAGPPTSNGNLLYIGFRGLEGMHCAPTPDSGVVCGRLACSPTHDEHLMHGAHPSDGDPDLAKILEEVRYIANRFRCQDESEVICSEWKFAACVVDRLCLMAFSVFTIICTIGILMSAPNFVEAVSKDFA

rat α6/α3β2β3 nAChR = rat α6/α3β2β3 nAChR (Rattus norvegicus, UniProt P04757+P12390+P12391+P43143); experiment: cell-based
rat α3β2 nAChR = rat α3β2 nAChR (Rattus norvegicus, UniProt P04757+P12390); experiment: cell-based
Sequence of rat α3β2 nAChR (P04757 26-499 limits assumed): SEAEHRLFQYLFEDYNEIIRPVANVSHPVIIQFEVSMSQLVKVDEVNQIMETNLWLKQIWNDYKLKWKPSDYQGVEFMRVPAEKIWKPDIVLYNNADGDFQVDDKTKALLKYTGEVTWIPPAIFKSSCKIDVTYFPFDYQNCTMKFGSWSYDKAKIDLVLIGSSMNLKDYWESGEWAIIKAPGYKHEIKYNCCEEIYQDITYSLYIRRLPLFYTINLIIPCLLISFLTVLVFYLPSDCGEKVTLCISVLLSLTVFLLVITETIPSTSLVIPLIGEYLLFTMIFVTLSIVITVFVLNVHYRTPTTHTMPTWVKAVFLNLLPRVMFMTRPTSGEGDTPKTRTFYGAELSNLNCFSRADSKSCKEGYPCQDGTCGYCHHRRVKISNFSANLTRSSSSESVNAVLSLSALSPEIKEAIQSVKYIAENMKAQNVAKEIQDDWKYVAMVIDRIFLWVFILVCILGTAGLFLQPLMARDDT
Sequence of rat α3β2 nAChR (P12390 25-500 limits assumed): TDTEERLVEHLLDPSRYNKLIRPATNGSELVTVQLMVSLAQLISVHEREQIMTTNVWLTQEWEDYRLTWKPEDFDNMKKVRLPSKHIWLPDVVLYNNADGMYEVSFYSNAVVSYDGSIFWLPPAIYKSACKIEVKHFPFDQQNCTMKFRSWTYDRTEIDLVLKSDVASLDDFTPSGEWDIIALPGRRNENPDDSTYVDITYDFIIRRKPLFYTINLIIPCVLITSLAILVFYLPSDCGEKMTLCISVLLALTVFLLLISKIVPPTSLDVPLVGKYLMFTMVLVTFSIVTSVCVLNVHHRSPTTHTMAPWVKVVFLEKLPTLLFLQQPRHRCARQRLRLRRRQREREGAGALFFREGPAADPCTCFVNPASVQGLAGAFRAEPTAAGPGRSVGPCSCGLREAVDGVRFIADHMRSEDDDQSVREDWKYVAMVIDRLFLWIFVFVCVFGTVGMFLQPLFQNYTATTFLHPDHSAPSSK

human α9α10 nAChR = human α9α10 nAChR (Homo sapiens, UniProt Q9GZZ6+Q9UGM1); experiment: cell-based; assay type: cell-based
Sequence of human α9α10 nAChR (Q9UGM1 26-479 limits assumed): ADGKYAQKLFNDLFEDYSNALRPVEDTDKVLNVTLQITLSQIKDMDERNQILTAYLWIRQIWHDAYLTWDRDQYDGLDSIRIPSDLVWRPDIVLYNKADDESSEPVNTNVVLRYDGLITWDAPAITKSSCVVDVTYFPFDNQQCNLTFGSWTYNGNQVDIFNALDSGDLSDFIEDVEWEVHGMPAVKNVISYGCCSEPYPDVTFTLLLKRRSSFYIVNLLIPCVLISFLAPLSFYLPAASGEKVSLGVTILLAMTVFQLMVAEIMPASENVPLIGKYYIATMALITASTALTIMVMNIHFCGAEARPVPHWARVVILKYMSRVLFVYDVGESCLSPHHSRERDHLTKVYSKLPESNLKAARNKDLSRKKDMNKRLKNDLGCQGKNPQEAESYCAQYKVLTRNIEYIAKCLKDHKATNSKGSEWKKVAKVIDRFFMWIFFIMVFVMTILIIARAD
Sequence of human α9α10 nAChR (Q9GZZ6 25-450 limits assumed): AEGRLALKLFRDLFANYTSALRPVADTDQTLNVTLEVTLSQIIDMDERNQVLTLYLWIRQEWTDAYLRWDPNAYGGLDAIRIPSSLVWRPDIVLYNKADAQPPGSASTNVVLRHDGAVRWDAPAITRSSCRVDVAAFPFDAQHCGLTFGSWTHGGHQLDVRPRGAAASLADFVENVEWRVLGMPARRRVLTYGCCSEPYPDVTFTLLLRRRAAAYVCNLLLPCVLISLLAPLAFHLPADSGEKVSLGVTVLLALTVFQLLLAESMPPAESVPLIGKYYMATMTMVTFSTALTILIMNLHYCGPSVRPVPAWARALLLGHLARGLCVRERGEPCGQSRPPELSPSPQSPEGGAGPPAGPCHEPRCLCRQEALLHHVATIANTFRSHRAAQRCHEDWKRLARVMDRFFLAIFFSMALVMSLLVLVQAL

rat α2β4 nAChR = rat α2β4 nAChR (Rattus norvegicus, UniProt P12389+P12392); experiment: cell-based; assay type: cell-based
Sequence of rat α2β4 nAChR (P12389 28-511 limits assumed): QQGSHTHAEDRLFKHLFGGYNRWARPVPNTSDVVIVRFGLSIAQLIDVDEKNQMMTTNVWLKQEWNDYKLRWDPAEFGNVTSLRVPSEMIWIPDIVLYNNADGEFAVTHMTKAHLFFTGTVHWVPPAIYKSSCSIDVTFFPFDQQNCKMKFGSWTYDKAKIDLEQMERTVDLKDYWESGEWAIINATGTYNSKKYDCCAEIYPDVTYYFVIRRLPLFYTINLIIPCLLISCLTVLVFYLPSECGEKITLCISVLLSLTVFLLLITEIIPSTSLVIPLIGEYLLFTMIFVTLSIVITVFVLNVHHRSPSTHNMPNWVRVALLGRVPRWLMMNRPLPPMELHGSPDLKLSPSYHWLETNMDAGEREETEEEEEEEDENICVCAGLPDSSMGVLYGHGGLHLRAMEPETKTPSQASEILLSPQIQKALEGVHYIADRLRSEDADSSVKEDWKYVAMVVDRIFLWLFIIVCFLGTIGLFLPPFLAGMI
Sequence of rat α2β4 nAChR (P12392 21-495 limits assumed): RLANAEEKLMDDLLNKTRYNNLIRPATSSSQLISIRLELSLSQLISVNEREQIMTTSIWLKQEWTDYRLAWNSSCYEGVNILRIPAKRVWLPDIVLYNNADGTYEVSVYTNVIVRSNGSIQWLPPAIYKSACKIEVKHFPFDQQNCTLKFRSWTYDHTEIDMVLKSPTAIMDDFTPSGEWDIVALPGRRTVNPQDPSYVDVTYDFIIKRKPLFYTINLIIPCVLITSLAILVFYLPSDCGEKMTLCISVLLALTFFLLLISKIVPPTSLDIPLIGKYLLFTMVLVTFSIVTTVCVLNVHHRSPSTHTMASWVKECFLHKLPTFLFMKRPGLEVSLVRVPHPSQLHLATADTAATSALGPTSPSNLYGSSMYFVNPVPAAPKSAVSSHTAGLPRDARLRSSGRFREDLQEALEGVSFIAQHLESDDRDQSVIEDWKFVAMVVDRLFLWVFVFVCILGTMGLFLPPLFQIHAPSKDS

rat α2β2 nAChR = rat α2β2 nAChR (Rattus norvegicus, UniProt P12389+P12390); experiment: cell-based; assay type: cell-based
Sequence of rat α2β2 nAChR (P12389 28-511 limits assumed): as the sequence (P12389 28-511 limits assumed) above
Sequence of rat α2β2 nAChR (P12390 25-500 limits assumed): as the sequence (P12390 25-500 limits assumed) above

rat α3β4 nAChR = rat α3β4 nAChR (Rattus norvegicus, UniProt P04757+P12392); experiment: cell-based; assay type: cell-based
Sequence of rat α3β4 nAChR (P04757 26-499 limits assumed): as the sequence (P04757 26-499 limits assumed) above
Sequence of rat α3β4 nAChR (P12392 21-495 limits assumed): as the sequence (P12392 21-495 limits assumed) above

rat α4β4 nAChR = rat α4β4 nAChR (Rattus norvegicus, UniProt P09483+P12392); experiment: cell-based; assay type: cell-based
Sequence of rat α4β4 nAChR (P09483 31-630 limits assumed): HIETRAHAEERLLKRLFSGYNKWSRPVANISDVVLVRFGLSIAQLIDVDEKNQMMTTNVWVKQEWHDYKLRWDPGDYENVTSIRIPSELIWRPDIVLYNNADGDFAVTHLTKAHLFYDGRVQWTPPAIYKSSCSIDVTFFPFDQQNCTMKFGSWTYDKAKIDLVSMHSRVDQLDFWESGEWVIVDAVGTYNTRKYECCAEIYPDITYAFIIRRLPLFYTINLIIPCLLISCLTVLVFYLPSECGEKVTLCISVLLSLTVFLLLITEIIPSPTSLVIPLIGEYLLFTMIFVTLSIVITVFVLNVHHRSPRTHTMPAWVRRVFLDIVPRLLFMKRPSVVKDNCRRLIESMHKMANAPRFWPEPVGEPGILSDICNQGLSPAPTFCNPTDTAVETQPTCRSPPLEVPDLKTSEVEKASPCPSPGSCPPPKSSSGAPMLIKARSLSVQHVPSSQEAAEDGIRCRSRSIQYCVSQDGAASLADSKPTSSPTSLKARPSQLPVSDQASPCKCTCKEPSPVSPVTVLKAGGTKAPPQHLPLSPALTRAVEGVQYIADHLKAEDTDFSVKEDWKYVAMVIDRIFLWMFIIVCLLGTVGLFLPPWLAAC
Sequence of rat α4β4 nAChR (P12392 21-495 limits assumed): as the sequence (P12392 21-495 limits assumed) above

Sequence of rat α4β2 nAChR (P09483 31-630 limits assumed): as the sequence (P09483 31-630 limits assumed) above
Sequence of rat α4β2 nAChR (P12390 25-500 limits assumed): as the sequence (P12390 25-500 limits assumed) above

`CC(C)C[C@@H]1NC(=O)[C@H](CC(=O)O)NC(=O)[C@H](CO)NC(=O)[C@H](Cc2c[nH]cn2)NC(=O)[C@H](CCC(N)=O)NC(=O)[C@H](C(C)C)NC(=O)[C@H](CCC(N)=O)NC(=O)[C@@H]2CSSC[C@H](N)C(=O)N[C@@H](CSSC[C@@H](C(=O)O)NC1=O)C(=O)N[C@@H](CO)C(=O)N[C@@H](CC(N)=O)C(=O)N1CCC[C@H]1C(=O)N[C@@H](C)C(=O)N2` [Δ-CIC] (H-CCSNPACQVQHSDLC-OH; disulfide 1-7, 2-15) was tested. Which IC50 (rat α4β2 nAChR) did it give?
The IC50 was greater than 10 µM.

What about the “inhibition (in words)” value (rat α4β2 nAChR) of the same compound?
The value was “no inhibition was detected; also recorded: No effects were observed”.

What about the “dissociation behavior, CIC versus Δ-CIC” value [1] of the same compound?
The value was “no difference in dissociation behavior”.

And the IC50 (rat α7 nAChR)?
The IC50 was greater than 10 µM.

And the “inhibition (in words)” value (rat α7 nAChR)?
The value was “no inhibition was detected; also recorded: No effects were observed”.

What about the IC50 (rat α6/α3β2β3 nAChR) of the same compound?
Its IC50 is 1.08 µM.

What about the IC50 (rat α3β2 nAChR) of the same compound?
Its IC50 is 4.56 µM.

And the IC50 (human α9α10 nAChR)?
Its IC50 is greater than 10 µM.

And the “inhibition (in words)” value (human α9α10 nAChR)?
Its value is “no inhibition was detected; also recorded: No effects were observed”.

What about the IC50 (rat α2β4 nAChR) of the same compound?
The IC50 was greater than 10 µM.

And the “inhibition (in words)” value (rat α2β4 nAChR)?
Its value is “no inhibition was detected; also recorded: No effects were observed”.

And the IC50 (rat α2β2 nAChR)?
Its IC50 is greater than 10 µM.

And the “inhibition (in words)” value (rat α2β2 nAChR)?
The value was “no inhibition was detected; also recorded: No effects were observed”.

And the IC50 (rat α3β4 nAChR)?
Its IC50 is greater than 10 µM.

And the “inhibition (in words)” value (rat α3β4 nAChR)?
Its value is “no inhibition was detected; also recorded: No effects were observed”.

And the IC50 (rat α4β4 nAChR)?
Its IC50 is greater than 10 µM.

And the “inhibition (in words)” value (rat α4β4 nAChR)?
The value was “no inhibition was detected; also recorded: No effects were observed”.
